Experimental data published in patent US20120202801A1, “METHODS FOR TREATING BREAST CANCER” (priority 2009, published 2012).
Marks after values point to notes of the source that are not given here.

Columns and labels:
HT1080 cells = assay: Cell cycle analysis by propidium iodide flow cytometry in HT1080 cells (% cells in S-phase); type: cell-based, human; details: for % Cells In S-Phase: HT1080 cells, 100 nM, 18 hours, normoxic, DMSO control 17.3
Method: Experimental Design. […] After treatment, cells were trypsinized, and stained with propidium iodide (PI) dye to measure DNA content of individual cells by flow cytometry. Output comprised histograms showing relative DNA content in 10,000 cells.
While compounds which cause greater than 20% of the cells to accumulate in S-phase at 100 nM are considered active, a larger percentage of cells may be accumulated in S-phase at lower doses depending on the Compound, as shown in FIG. 12 for example.

[1] = tested on: aromatase-overexpressing MCF-7 xenografts; assay: Aromatase-overexpressing MCF-7 breast cancer xenograft, combination with letrozole; type: in vivo, mice; details: for Mean % Inhibition of Tumor Size vs Vehicle at Day 42 / Proportion Cured: aromatase-overexpressing MCF-7 xenografts, nude mice
Method: Experimental Design. Aromatase-overexpressing, estrogen-sensitive MCF-7 cells (7.0×10^6 cells/mouse) were implanted subcutaneously in ovariectomized female athymic nude mice. Androstenedione pellets (6 mg/pellet) were implanted 1 day prior to cell implantation.
Tumor size was measured by calipers at periodic intervals during the study. When the individual tumor size in a mouse exceeded 1500 mm^3, or after 98 days of treatment, that mouse was sacrificed.

HT1080 xenografts [2] = assay: Time course of tumor size and plasma human VEGF in HT1080 xenografts; type: in vivo, mice; details: by Day 1
Method: (§1) Experimental Design. HT1080 cells (5×10^6 cells/mouse) were implanted subcutaneously in male athymic nude mice.
Tumor size was measured by calipers immediately pre-treatment and at the time of sacrifice on Day 1, 2, or 3 (5 mice per group per day). At sacrifice, the plasma was collected for assay of pathologic human VEGF concentration using an ELISA that recognizes human VEGF121 and VEGF165 (as described in Section 9.1.1.1).

HT1080 xenografts [3] = assay: BrdU labeling of tumor cells from HT1080 xenografts in vivo; set-up: species or system mice; details: 1, 2, or 3 days of treatment
Method: as §1
The mice were sacrificed 3 hours later, and the tumors collected. A single cell suspension was prepared from the tumor cells. The cells were permeabilized and an antibody to BrdU was used to stain cells that had entered S phase during the labeling period. The proportion of cells actively synthesizing DNA was determined by cell sorting.

[4] = tested on: human VEGF121 and VEGF165; assay: Intra-tumor and pathologic plasma human VEGF in HT1080 xenografts, Compound 1205 (studies #21, #23); type: in vivo, mice
Source text: Experimental Design. HT1080 cells (5×10^6 cells/mice) were implanted subcutaneously into male athymic nude mice. Treatment with vehicle alone or Compound 1205 was initiated when the median tumor volume was approximately 311±88 mm^3. Table 7 and Table 9 (study design #21 and #23) provide the study design for assessing tumor and plasma pathologic VEGF concentrations—each group in each study included eight (8) mice. When the tumors in vehicle-treated mice had reached the target size of ˜1200 mm^3 for study #21 and ˜1500 mm^3 for study #23, all mice in the study were sacrificed, and excised tumors were homogenized in buffer containing protease inhibitors. Both intra-tumor and pathologic plasma human VEGF levels were measured using an ELISA that recognizes human VEGF121 and VEGF165. Intra-tumor VEGF levels were normalized to the total tumor protein concentration and pathologic plasma VEGF levels were expressed in pg/mL. Because smaller tumors produce less VEGF per mg of tumor protein, intra-tumor VEGF levels were normalized to tumor size.

HT1080 xenografts [5] = assay: HT1080 xenograft tumor growth, Compound 1205, 1330 and Compound #10 (studies 21-24b); type: in vivo, mice
Source text: Experimental Design. HT1080 cells (5×10^6 cells/mouse) were implanted subcutaneously in male athymic nude mice. […] For comparison, Compound #10 was included in this study.

MCF-7p xenografts [6] = assay: Aggressive MCF-7p estrogen-sensitive breast cancer xenograft, combination with paclitaxel; type: in vivo, mice
Method: (§2) Experimental Design. Aggressively growing, estrogen-sensitive MCF 7 breast cancer cells (hereafter referred to as MCF-7p) were passaged in vivo prior to use to generate a more aggressive cell line. Tumors were excised from donor mice, passed through a sterile mesh, and suspended in 0.9% sodium chloride, and 20 mg of this suspension was mixed 1:1 with Matrigel™. These tumor fragments were implanted subcutaneously into female athymic nude mice bearing estrogen pellets (0.72 mg/pellet) that had been inserted 2 days previously. After 28 days, when the tumors had become established and grown to a substantial size (i.e., the mean tumor size had reached ˜430 mm^3), mice were divided into 4 groups, and treatment was administered as shown in Table 30.
Tumor size was measured by calipers at periodic intervals during the study. After tumors in a given group had reached an average size of ˜1500 mm^3, the mice in that group were sacrificed; after 72 days of treatment, any remaining groups were taken off study.

MCF-7 xenografts = assay: MCF-7 estrogen-sensitive breast cancer xenograft, combination with tamoxifen; type: in vivo, mice
Method: Experimental Design. […] Estrogen pellets (0.72 mg/pellet) were implanted in the mice 9 days prior to cell implantation.
Tumor size was measured by calipers at periodic intervals during the study. After 42 days of treatment, the mice were sacrificed.

MCF-7p xenografts [7] = assay: Aggressive MCF-7p estrogen-sensitive breast cancer xenograft, combination with tamoxifen; type: in vivo, mice
Method: as §2, with “Aggressively” for “Experimental Design. Aggressively”, “˜435” for “˜430”, “34.” for “30.”
Tumor size was measured by calipers at periodic intervals during the study. When the mean tumor size in a group had reached 1500 mm^3, or after 72 days of treatment, the mice in the group were sacrificed.

[8] = tested on: hypoxia-inducible endogenous VEGF expression; assay: Hypoxia-inducible endogenous VEGF expression ELISA in HeLa cells, dose-response (EC50, Table 3); details: Homo sapiens, read-out: ELISA EC50 μM
[9] = Letrozole (high-dose), 30 μg/mouse Oral QD
[10] = Letrozole (low-dose), 10 μg/mouse Oral QD
[11] = Paclitaxel alone, 10 mg/kg IV Days 2, 5, 9, 12, 15, nude mice
[12] = 42 days of treatment, combination = Compound #10 with tamoxifen
[13] = Tamoxifen alone, 10 mg/kg QD, nude mice
[14] = Tamoxifen alone, 8 mg/kg Oral QD, nude mice

## O=C(Oc1ccc(Cl)cc1)N1CCc2c([nH]c3ccc(Cl)cc23)C1c1ccc(OCCN2CCCCC2)cc1 (stereo not drawn)
HT1080 cells
  % Cells In S-Phase: 16.8%

## N#Cc1ccc(C(c2ccc(C#N)cc2)n2cncn2)cc1 [letrozole]
[1]; [9]
  Mean % Inhibition of Tumor Size vs Vehicle at Day 42: 79%
  Proportion Cured: 20%
[1]; [10]
  Mean % Inhibition of Tumor Size vs Vehicle at Day 42: 72%
  Proportion Cured: 10%
[1]; high-dose letrozole
  tumor growth: tumor regression was observed
[1]; low-dose letrozole
  tumor growth: tumor growth was prevented but tumor reduction was not observed

## COc1cccc2c1C(=O)c1c(O)c3c(c(O)c1C2=O)C[C@@](O)(C(=O)CO)C[C@@H]3O[C@H]1C[C@H](N)[C@H](O)[C@H](C)O1 [doxorubicin]
HT1080 xenografts [2]
  pathologic plasma human VEGF levels vs control: numerically lower than in control animals
HT1080 xenografts [3]
  BrdU staining of tumor cells (proportion of cells in S phase): decreased the percentage of tumor cells staining with BrdU

## O=C(Oc1ccc(Cl)cc1)N1CCc2c([nH]c3ccc(Cl)cc23)[C@@H]1c1ccc(OCC[C@H](O)CO)cc1 [Compound 1205]
[4]; 0.5 or 3 mg/kg QD
  inhibition of both tumor and pathologic plasma human VEGF levels: more than 95%
[4]; Study #21, 3 mg/kg QD, 14 days
  Mean difference in human tumor VEGF (%) at Day 14: 98%**
HT1080 xenografts [5]; Study 21: 3 mg/kg QD
  Final mean terminal tumor size in treatment group: 379 mm^3
HT1080 xenografts [5]; Study 22: 0.5 mg/kg QD
  Final mean terminal tumor size in treatment group: 1750 mm^3
HT1080 xenografts [5]; Study 22: 3 mg/kg QD
  Difference vs. vehicle in median number of days to reach 1000 mm^3: 14** Days
  Final mean terminal tumor size in treatment group: 1840 mm^3
HT1080 xenografts [5]; Study 24a: 10 mg/kg QD
  Difference vs. vehicle in median number of days to reach 1000 mm^3: 14** Days
HT1080 xenografts [5]; Study 24a: 10 mg/kg QD, Day 11
  Mean difference in tumor growth rate at the Day that the vehicle-treated tumors taken off study (%): 76%**
HT1080 xenografts [5]; Study 24b: 0.3 mg/kg QD
  Difference vs. vehicle in median number of days to reach 1000 mm^3: 0.7 days
  Final mean terminal tumor size in treatment group: 1540 mm^3

## CC(=O)O[C@H]1C(=O)[C@@]2(C)[C@H]([C@H](OC(=O)c3ccccc3)[C@]3(O)C[C@H](OC(=O)[C@H](O)[C@@H](NC(=O)c4ccccc4)c4ccccc4)C(C)=C1C3(C)C)[C@]1(OC(C)=O)CO[C@@H]1C[C@@H]2O [Paclitaxel, paclitaxel]
MCF-7p xenografts [6]
  tumor growth: transient cytoreduction and a tumor growth delay
MCF-7p xenografts [6]; [11]
  Mean % Inhibition of Tumor Size vs Vehicle at Day 26: 78* %
  Median Time to Tumor Size ≧1000 mm^3: 47 days

## O=C(Oc1ccc(Cl)cc1)N1CCc2c([nH]c3ccc(Cl)cc23)C1c1ccc(OCCN2CCOCC2)cc1 (stereo not drawn) [drawing 535]
HT1080 cells
  % Cells In S-Phase: 16.4%

## CC/C(=C(\c1ccccc1)c1ccc(OCCN(C)C)cc1)c1ccccc1 [Tamoxifen, tamoxifen]
MCF-7 xenografts; [12]
  mice cured (%): 70%
  mice cured (number): 7 of the 10
MCF-7 xenografts; [13]
  Mean % Inhibition of Tumor Size vs Vehicle at Day 42: 84%
  Proportion Cured: 70%
MCF-7 xenografts; combination = Compound #10 with tamoxifen
  tumor regression and growth delay: tumor regression and growth delay were observed
MCF-7p xenografts [7]
  tumor growth: only modestly delayed tumor growth
MCF-7p xenografts [7]; [14]
  Mean % Inhibition of Tumor Size vs Vehicle at Day 26: 33* %
  Median Time to Tumor Size ≧1000 mm^3: 24 days

## O=C(Oc1ccc(Cl)cc1)Oc1ccc(C2c3[nH]c4ccc(Cl)cc4c3CCN2C(=O)Oc2ccc(Cl)cc2)cc1 (stereo not drawn) [Compound 578]
[8]
  EC50: 0.04 to 0.2 µM

## O=C(Oc1ccc(Cl)cc1)N1CCc2c([nH]c3ccc(Cl)cc23)C1c1ccc(OCCCN2CCN(CCO)CC2)cc1 (stereo not drawn) [Compound 942]
[8]
  EC50: 0.008 to 0.04 µM

## O=C(Oc1ccc(F)cc1)N1CCc2c([nH]c3ccc(Cl)cc23)C1c1ccc(OCCCCN2CCOCC2)cc1 (stereo not drawn) [Compound 738]
[8]
  EC50: < 0.008 µM

## CC(=O)N1CCN(CCCOc2ccc(C3c4[nH]c5ccc(Cl)cc5c4CCN3C(=O)Oc3ccc(Cl)cc3)cc2)CC1 (stereo not drawn) [Compound 903]
[8]
  EC50: < 0.008 µM

## O=C(Oc1ccc(F)cc1)N1CCc2c([nH]c3ccc(Cl)cc23)C1c1ccc(OCCCCCCNCCCn2ccnc2)cc1 (stereo not drawn) [Compound 779]
[8]
  EC50: 0.04 to 0.2 µM

## COCCCNCCCCCCOc1ccc(C2c3[nH]c4ccc(Cl)cc4c3CCN2C(=O)Oc2ccc(Cl)cc2)cc1 (stereo not drawn) [Compound 785]
[8]
  EC50: < 0.008 µM

## O=C(Oc1ccc(F)cc1)N1CCc2c([nH]c3ccc(Cl)cc23)C1c1ccc(OCCCN2CCSCC2)cc1 (stereo not drawn) [Compound 991]
[8]
  EC50: 0.04 to 0.2 µM

## O=C(Oc1ccc(Cl)cc1)N1CCc2c([nH]c3ccc(Cl)cc23)C1c1ccc(OCCCCCCN2CCCC2)cc1 (stereo not drawn) [Compound 783]
[8]
  EC50: < 0.008 µM

## CNCC(O)COc1ccc(C2c3[nH]c4ccc(Cl)cc4c3CCN2C(=O)Oc2ccc(Cl)cc2)cc1 (stereo not drawn) [Compound 850]
[8]
  EC50: 0.04 to 0.2 µM

## CN1CCN(CCCCOc2ccc(C3c4[nH]c5ccc(Cl)cc5c4CCN3C(=O)Oc3ccc(Cl)cc3)cc2)CC1 (stereo not drawn) [Compound 704]
[8]
  EC50: 0.04 to 0.2 µM

## CCN(CC)CCCOc1ccc(C2c3[nH]c4ccc(Cl)cc4c3CCN2C(=O)Oc2ccc(Cl)cc2)cc1 (stereo not drawn) [Compound 946]
[8]
  EC50: 0.008 to 0.04 µM

## CC(C)NCCCCOc1ccc(C2c3[nH]c4ccc(Cl)cc4c3CCN2C(=O)Oc2ccc(Cl)cc2)cc1 (stereo not drawn) [Compound 700]
[8]
  EC50: 0.008 to 0.04 µM

## O=C(Oc1ccc(F)cc1)N1CCc2c([nH]c3ccc(Cl)cc23)C1c1ccc(OCCCCCCN2CCCC2)cc1 (stereo not drawn) [Compound 773]
[8]
  EC50: < 0.008 µM

## CN1CCCC(COc2ccc(C3c4[nH]c5ccc(Cl)cc5c4CCN3C(=O)Oc3ccc(Cl)cc3)cc2)C1 (stereo not drawn) [Compound 966]
[8]
  EC50: 0.008 to 0.04 µM

## NC(Cn1ccc(=O)c(O)c1)C(=O)O (stereo not drawn) [mimosine, reference compound]
HT1080 cells; same tumor cells, data not shown
  delay or prolongation of the cell cycle: does not delay or prolong the cell cycle or reduce VEGF production

## O=C(Oc1ccc(Cl)cc1)N1CCc2c([nH]c3ccc(Cl)cc23)C1c1ccc(OCCCCCCNCCO)cc1 (stereo not drawn) [Compound 782]
[8]
  EC50: < 0.008 µM

## CN(C)CCCOc1ccc(C2c3[nH]c4ccc(Cl)cc4c3CCN2C(=O)Oc2ccc(Cl)cc2)cc1 (stereo not drawn) [Compound 479]
[8]
  EC50: 0.04 to 0.2 µM
